Source: patent US20070049564A1 (Wyeth, priority 2005, published 2007)
Read-outs that look alike come from different tables or passages of the source.

Experiments:
E. coli GC 2231 = assay: MIC, broth microdilution; conditions: Escherichia coli
E. coli GC 2232 = assay: MIC, broth microdilution; conditions: Escherichia coli
E. coli GC 2234 = assay: MIC, broth microdilution; conditions: Escherichia coli
Description: (§1) Antimicrobial susceptibility testing. The in vitro activities of the antibiotics are determined by the broth microdilution method as recommended by the National Committee for Clinical Laboratory Standards (NCCLS) (1). Mueller-Hinton II broth (MHBII)(BBL Cockeysville, Md.) is the medium employed in the testing procedures. Microtiter plates containing serial dilutions of each antimicrobial agent are inoculated with each organism to yield the appropriate density (10^5 CFU/ml) in a 100 μl final volume. The plates are incubated for 18-22 hours at 35° C. in ambient air.
(§2) Representative compounds were first incubated in mouse serum for an hour prior to the in vitro testing against a panel of selected gram-positive and gram-negative bacteria strains. All compounds were also pre-incubated in water for an hour prior to testing as control.

E. coli GC 2272 = assay: MIC, broth microdilution; conditions: Escherichia coli
E. coli GC 3226 = assay: MIC, broth microdilution; conditions: Escherichia coli
S. typhimurium GC 2172 = assay: MIC, broth microdilution; conditions: Salmonella enterica, TYPHIMURIUM
S. aureus GC 1131 = assay: MIC, broth microdilution; conditions: Staphylococcus aureus
S. aureus GC 6466 = assay: MIC, broth microdilution; conditions: Staphylococcus aureus
S. aureus GC 1079 = assay: MIC, broth microdilution; conditions: Staphylococcus aureus
S. aureus GC 2216 = assay: MIC, broth microdilution; conditions: Staphylococcus aureus
S. aureus GC 6335 = assay: MIC, broth microdilution; conditions: Staphylococcus aureus
S. epidermidis GC 4935 = assay: MIC, broth microdilution; conditions: Staphylococcus epidermidis
E. faecalis GC 2267 = assay: MIC, broth microdilution; conditions: Enterococcus faecalis
E. faecium GC 4556 = assay: MIC, broth microdilution; conditions: Enterococcus faecium
Description: as §1
Representative compounds were first incubated in mouse serum for an hour prior to the in vitro testing against a panel of selected gram-positive and gram-negative bacteria strains. All compounds were also pre-incubated in water for an hour prior to testing as control. Representative compounds of Formula I were incubated in human serum prior to MIC determination.

E. faecium GC 2243 = assay: MIC, broth microdilution; conditions: Enterococcus faecium
S. pneumoniae* GC 4465 = assay: MIC, broth microdilution; conditions: Streptococcus pneumoniae
S. pneumoniae+ GC 4465 = assay: MIC, broth microdilution; conditions: Streptococcus pneumoniae
Description: as §1, §2

S. pyogenes GC 4563 = assay: MIC, broth microdilution; conditions: Streptococcus pyogenes
c. albicans GC 3066 = assay: MIC, broth microdilution
Staph. aureus Smith = assay: In vivo activity (oral, iv; ED50) against Staph. aureus Smith in mice
Description: Representative examples of compounds of Formula I were tested for the oral efficacy using S. aureus Smith in mice.

[1] = read-out: MINIMAL INHIBITORY CONCENTRATION MIC, pre-incubated in Mouse Serum
[2] = read-out: MINIMAL INHIBITORY CONCENTRATION MIC, pre-incubated in Water

CCCN(CC(=O)Nc1cc(N(C)C)c2c(c1O)C(=O)C1=C(O)[C@]3(O)C(=O)C(C(N)=O)=C(O)[C@@H](N(C)C)[C@@H]3C[C@@H]1C2)C(=O)OCOC(=O)c1cc(C)cc(C)c1 [Example 26, ({[(2-{[(5aR,6aS,7S,10aS)-9-(aminocarbonyl)-4,7-bis(dimethylamino)-1,8,10a,11-tetrahydroxy-10,12-dioxo-5,5a,6,6a,7,10,10a,12-octahydrotetracen-2-yl]amino}-2-oxoethyl)(propyl)amino]carbonyl}oxy)methyl 3,5-dimethylbenzoate]
0.43 mg/kg: ED50 (Staph. aureus Smith; Staphylococcus aureus, in Mus musculus, iv, read-out: ED50 SIV (Staph aureus Smith)) | ED50 (Staph. aureus Smith; iv, read-out: ED50 Staph Smith SIV)
0.5 µg/mL: MIC (S. aureus GC 1131; GC1131, read-out: MINIMAL INHIBITORY CONCENTRATION MIC, pre-incubated in Mouse Serum) | MIC (S. aureus GC 1131; GC1131, read-out: MINIMAL INHIBITORY CONCENTRATION MIC, pre-incubated in Water) | MIC (S. aureus GC 2216; GC2216, read-out: MINIMAL INHIBITORY CONCENTRATION MIC, pre-incubated in Mouse Serum) | MIC (S. aureus GC 2216; GC2216, read-out: MINIMAL INHIBITORY CONCENTRATION MIC, pre-incubated in Water) | MIC (S. aureus GC 6335; GC6335, read-out: MINIMAL INHIBITORY CONCENTRATION MIC, pre-incubated in Mouse Serum)
8.79 mg/kg: ED50 (Staph. aureus Smith; Staphylococcus aureus, in Mus musculus, po, read-out: ED50 SOD (Staph aureus Smith)) | ED50 (Staph. aureus Smith; Staphylococcus aureus, in Mus musculus, po, read-out: ED50 Staph Smith SOD)
>64 UG/ML: MINIMAL INHIBITORY CONCENTRATION MIC (c. albicans GC 3066; pre-incubated in Water)
0.25 µg/mL: MIC (S. aureus GC 6466; GC6466, read-out: MINIMAL INHIBITORY CONCENTRATION MIC, pre-incubated in Mouse Serum) | MIC (S. aureus GC 6466; GC6466, read-out: MINIMAL INHIBITORY CONCENTRATION MIC, pre-incubated in Water) | MIC (S. pneumoniae* GC 4465; [1]) | MIC (S. pneumoniae* GC 4465; [2]) | MIC (S. pyogenes GC 4563; GC4563, read-out: MINIMAL INHIBITORY CONCENTRATION MIC, pre-incubated in Mouse Serum) | MIC (S. pyogenes GC 4563; GC4563, read-out: MINIMAL INHIBITORY CONCENTRATION MIC, pre-incubated in Water)
1 µg/mL: MIC (E. coli GC 2232; GC2232, read-out: MINIMAL INHIBITORY CONCENTRATION MIC, pre-incubated in Mouse Serum) | MIC (E. coli GC 2234; GC2234, read-out: MINIMAL INHIBITORY CONCENTRATION MIC, pre-incubated in Mouse Serum) | MIC (S. aureus GC 1079; GC1079, read-out: MINIMAL INHIBITORY CONCENTRATION MIC, pre-incubated in Mouse Serum) | MIC (S. aureus GC 6335; GC6335, read-out: MINIMAL INHIBITORY CONCENTRATION MIC, pre-incubated in Water) | MIC (S. epidermidis GC 4935; GC4935, read-out: MINIMAL INHIBITORY CONCENTRATION MIC, pre-incubated in Mouse Serum) | MIC (E. faecium GC 4556; GC4556, read-out: MINIMAL INHIBITORY CONCENTRATION MIC, pre-incubated in Mouse Serum) | MIC (E. faecium GC 2243; GC2243, read-out: MINIMAL INHIBITORY CONCENTRATION MIC, pre-incubated in Mouse Serum)
> 64 µg/mL: MIC (E. coli GC 2231; GC2231, read-out: MINIMAL INHIBITORY CONCENTRATION MIC, pre-incubated in Water) | MIC (E. coli GC 2232; GC2232, read-out: MINIMAL INHIBITORY CONCENTRATION MIC, pre-incubated in Water) | MIC (E. coli GC 2234; GC2234, read-out: MINIMAL INHIBITORY CONCENTRATION MIC, pre-incubated in Water) | MIC (E. coli GC 3226; GC3226, read-out: MINIMAL INHIBITORY CONCENTRATION MIC, pre-incubated in Water) | MIC (S. typhimurium GC 2172; [2]) | MIC (c. albicans GC 3066; Candida albicans, GC3066, read-out: MINIMAL INHIBITORY CONCENTRATION MIC)
2 µg/mL: MIC (E. coli GC 2272; GC2272, read-out: MINIMAL INHIBITORY CONCENTRATION MIC, pre-incubated in Mouse Serum) | MIC (E. coli GC 3226; GC3226, read-out: MINIMAL INHIBITORY CONCENTRATION MIC, pre-incubated in Mouse Serum) | MIC (S. aureus GC 1079; GC1079, read-out: MINIMAL INHIBITORY CONCENTRATION MIC, pre-incubated in Water) | MIC (S. epidermidis GC 4935; GC4935, read-out: MINIMAL INHIBITORY CONCENTRATION MIC, pre-incubated in Water) | MIC (E. faecalis GC 2267; GC2267, read-out: MINIMAL INHIBITORY CONCENTRATION MIC, pre-incubated in Mouse Serum) | MIC (E. faecium GC 2243; GC2243, read-out: MINIMAL INHIBITORY CONCENTRATION MIC, pre-incubated in Water)
4 µg/mL: MIC (E. coli GC 2231; GC2231, read-out: MINIMAL INHIBITORY CONCENTRATION MIC, pre-incubated in Mouse Serum) | MIC (E. faecalis GC 2267; GC2267, read-out: MINIMAL INHIBITORY CONCENTRATION MIC, pre-incubated in Water) | MIC (E. faecium GC 4556; GC4556, read-out: MINIMAL INHIBITORY CONCENTRATION MIC, pre-incubated in Water) | MIC (S. pneumoniae+ GC 4465; [1]) | MIC (S. pneumoniae+ GC 4465; [2])
16 µg/mL: MIC (S. typhimurium GC 2172; [1])
64 µg/mL: MIC (E. coli GC 2272; GC2272, read-out: MINIMAL INHIBITORY CONCENTRATION MIC, pre-incubated in Water)
